Read-outs that look alike come from different tables or passages of the source.
Assays:
human subjects = assay: Example 2: dose range study, coronary flow velocity, heart rate and blood pressure after IV bolus; format: in vivo
Protocol: The study included patients undergoing a clinically indicated coronary catheterization with no more than a 70% stenosis in any coronary artery and no more than a 50% stenosis of the study vessel had CBFv determined by Doppler flow wire. Study subject were selected after measuring baseline and peak CBFv after an intracoronary (IC) injection of 18 µg of Ado. 36 subjects were identified as meeting the study criteria of having a peak to baseline CBFv ration of ≥ 2.5 in response to Adenosine,
CVT-3146 was administered to the study subjects by IV bolus in less that 10 seconds in amounts ranging from 10 µg to 500 µg.
The effectiveness of both compounds was measured by monitoring coronary flow velocity. Other coronary parameters that were monitored included heart rate and blood pressure. These parameters were measured in order to evaluate the time to peak dose response, the magnitude of the dose response and the duration of the dose response. Adverse events were also monitored. Coronary blood flow velocity was measured at the left anterior descending coronary artery (LAD) or left circumflex coronary artery (LCx). The velocity measurements were taken by following standard heart catheterization techniques and inserting a 0.014 inch Doppler-tipped Flowire into the LAD or LCx vessel and thereafter monitoring blood flow velocity. In addition, hemodynamic and electrocardiographic measurements were recorded continuously.
Overall, 36 human subjects (n=36) were evaluated. Of the 36, 18 were female and 18 were male. Their mean age was 53.4 and they ranged from 24-72 years in age. Of the 36 subjects evaluated, the LAD vessel of 31 subjects was monitored, and the LCx vessel of 5 subjects was monitored. The following doses (µg) of CVT-3146 were given to the subjects in a single iv bolus: 10 (n=4); 30 (n=6); 100 (n=4); 300 (n=7); 400 (n=9); 500 (n=6).

awake dogs = assay: Example 8: vasodilator effects in different vascular beds of chronically instrumented dogs; format: in vivo
Description: In this study the vasodilator effects of CVT-3146 were compared to those of ADO in different vascular beds in awake dogs. Dogs were chronically instrumented for measurements of the blood flow in coronary (CBF), mesenteric (MBF), hind limb (LBF), and renal (RBF) vascular beds, and hemodynamics.

[1] = Example 3: pharmacokinetic profile after a single IV bolus, three-compartment open model; format: in vivo, human; settings: for Vc / Vd / half-life / clearance: Mean (SD); for Vd / half-life / clearance: intravenous; for Vd: read-out: Vss
Protocol: (§1) This Example is a study performed to evaluate (1) the maximum tolerated dose of CVT-3146 and (2) the pharmacokinetic profile of CVT-3146 in healthy volunteers, after a single IV bolus dose.
(§2) CVT-3146 was administered as an IV bolus (20 seconds) in ascending doses of […], 10, 20 and 30 µg/kg.
(§3) Patient safety was monitored by ECG, laboratory assessments, and collection of vital signs and adverse events. Pharmacokinetics: • Plasma samples were drawn during supine phase (Days 1 and 2) at 0, 1, 2, 3, 4, 5, 7,10, 15, 20, 30, 45 minutes after dosing and at 1, 1.5., 2, 4, 6, 8,12 and 24 hours after dosing. Urine was collected for 24 hours for […] excretion. Pharmacodynamics: • The study evaluated the relationship of changes in heart rate to dose in both standing and supine positions and plasma concentration in the supine position.
A three-compartment open model was fit to the data using observed Tmax (1-4 minutes) as the duration of a zero-order infusion. Reliable parameter estimates were obtained for dose of 1-30 µg/kg. Parameters are summarized in the following (Table 2): Table 2

anesthetized dog = assay: Example 4: blood flow velocity in various vascular beds, intravascular Doppler catheter; format: in vivo; settings: 1.0 µg/kg intravenous bolus
Description: The effects of CVT-3146 were quantified as the average peak blood flow velocity (APV) using intravascular Doppler transducer tipped catheter. Heart rate (HR) and systemic arterial blood pressure (BP) were also monitored. […] Increased blood flow velocity was associated with a small transient increase in HR (16 bpm) and decrease in BP (12 mmHg).

healthy volunteers = assay: Example 3: maximum tolerated dose and safety after a single IV bolus, supine and standing; format: in vivo
Protocol: as §1
The study was performed using thirty-six healthy, non-smoking male subjects between the ages of 18 and 59 and within 15% of ideal body weight
The study was performed in phase 1, single center, double-blind, randomized, placebo-controlled, crossover, ascending dose study. Randomization was to CVT-3146 or placebo, in both supine and standing positions.
as §2
Subjects received either CVT-3146 or placebo on Day 1 supine, then crossover treatment on Day 2 supine. On Day 3, subjects received CVT-3146 or placebo standing, then crossover treatment on Day 4 standing.
as §3

[2] = half-life of CVT-3146 (background statement); settings: in vivo; species not stated; read-out: initial half-life
Protocol: The purpose of this open label study was to determine the magnitude and duration of effect of CVT-3146 (10-500 µg) on CBFv in humans.

[3] = severe in intensity, 20 µg/kg Standing, 4 subjects per group

Compound: CNC(=O)c1cnn(-c2nc(N)c3ncn([C@@H]4O[C@H](CO)[C@@H](O)[C@H]4O)c3n2)c1 [CVT-3146, (1-{9-[(4S,2R,3R,5R)-3,4-dihydroxy-5-(hydroxymethyl)oxolan-2-yl]-6-aminopurin-2-yl}pyrazol-4-yl)-N-methylcarboxamide]
- Maximum decrease in diastolic BP (human subjects; 400 µg IV bolus): 10 ± 5 mmHg
- Maximum decrease in systolic BP (human subjects; 400 µg IV bolus): 20 ± 8 mmHg
- Maximum increase in heart rate (human subjects; 400 µg IV bolus): 18 ± 8 bpm
- time coronary blood flow velocity ≥ 2.5-fold above baseline was maintained (human subjects; 400 µg IV bolus): 2.8 min
- time of maximum decrease in diastolic BP after dosing (human subjects; 400 µg IV bolus): about 1 minute
- time of maximum increase in heart rate after dosing (human subjects; 400 µg IV bolus): about 1 minute
- amount at which plateau peak velocity is reached (human subjects; IV bolus): less than 100 µg
- amount that increases peak flow velocity (as low as) (human subjects; IV bolus): 10 µg
- time at which peak flow was reached (human subjects; all doses (10 to 500 µg IV bolus)): about 30 seconds
- peak effects (human subjects; doses above about 100 µg): equivalent to 18 µg adenosine administered IC
- duration for CBF above 2-fold of the baseline (awake dogs; 2.5 µg/kg): 130 ± 19 s
- increase in LBF (hind limb blood flow) (awake dogs; Figure 18, mean ± SE, n=6, compared with ADO): smaller increase in LBF than ADO
- Vc ([1]; Dose 1 µg/kg, N=3): 9.84 (4.12) L
- Vc ([1]; Dose 3 µg/kg, N=4): 13.7 (6.06) L
- Vc ([1]; Dose 10 µg/kg, N=4): 17.9 (6.11) L
- Vc ([1]; Dose 20 µg/kg, N=8): 12.5 (5.83) L
- Vc ([1]; Dose 30 µg/kg, N=3): 15.7 (4.59) L
- Vc ([1]; Total (doses 1-30 µg/kg), N=22): 13.8 (5.67) L
- Vd ([1]; human, plasma, 1 ug/kg, N=3): 69 L
- half-life ([1]; human, plasma, 1 ug/kg, N=3, read-out: a Half-life): 2.14 min
- half-life ([1]; human, plasma, 1 ug/kg, N=3, read-out: β Half-life): 8.93 min
- half-life ([1]; human, plasma, 1 ug/kg, N=3, read-out: λ Half-life): 99 min
- Vd ([1]; human, plasma, 3 ug/kg, N=4): 90 L
- half-life ([1]; human, plasma, 3 ug/kg, N=4, read-out: a Half-life): 3.11 min
- half-life ([1]; human, plasma, 3 ug/kg, N=4, read-out: β Half-life): 17.2 min
- half-life ([1]; human, plasma, 3 ug/kg, N=4, read-out: λ Half-life): 130 min
- Vd ([1]; human, plasma, 10 ug/kg, N=4): 101 L
- half-life ([1]; human, plasma, 10 ug/kg, N=4, read-out: a Half-life): 4.15 min
- half-life ([1]; human, plasma, 10 ug/kg, N=4, read-out: β Half-life): 50.2 min
- half-life ([1]; human, plasma, 10 ug/kg, N=4, read-out: λ Half-life): 132 min
- Vd ([1]; human, plasma, 20 ug/kg, N=8): 75.2 L
- half-life ([1]; human, plasma, 20 ug/kg, N=8, read-out: a Half-life): 4.69 min
- half-life ([1]; human, plasma, 20 ug/kg, N=8, read-out: β Half-life): 32.6 min
- half-life ([1]; human, plasma, 20 ug/kg, N=8, read-out: λ Half-life): 117 min
- Vd ([1]; human, plasma, 30 ug/kg, N=3): 89.6 L
- half-life ([1]; human, plasma, 30 ug/kg, N=3, read-out: a Half-life): 3 min
- half-life ([1]; human, plasma, 30 ug/kg, N=3, read-out: β Half-life): 14 min
- half-life ([1]; human, plasma, 30 ug/kg, N=3, read-out: λ Half-life): 99.4 min
- Vd ([1]; human, plasma, Total (doses 1-30 µg/kg), N=22): 75.3 L
- half-life ([1]; human, plasma, Total (doses 1-30 µg/kg), N=22, read-out: a Half-life): 3.73 min
- half-life ([1]; human, plasma, Total (doses 1-30 µg/kg), N=22, read-out: β Half-life): 27.2 min
- half-life ([1]; human, plasma, Total (doses 1-30 µg/kg), N=22, read-out: λ Half-life): 86.4 min
- clearance ([1]; male, human, plasma, 1 ug/kg, N=3): 737 mL/min
- clearance ([1]; male, human, plasma, 3 ug/kg, N=4): 668 mL/min
- clearance ([1]; male, human, plasma, 10 ug/kg, N=4): 841 mL/min
- clearance ([1]; male, human, plasma, 20 ug/kg, N=8): 743 mL/min
- clearance ([1]; male, human, plasma, 30 ug/kg, N=3): 1020 mL/min
- clearance ([1]; male, human, plasma, Total (doses 1-30 µg/kg), N=22): 768 mL/min
- Tmax ([1]; male, human, plasma, IV bolus, supine, read-out: observed Tmax): 1 to 4 min
- decrease in BP (anesthetized dog): 12 mmHg
- small transient increase in HR (anesthetized dog): 16 bpm
- time to dissipation of effect on blood flow velocity (anesthetized dog): less than ten
- time to peak of effect on blood flow velocity (anesthetized dog): less than 30 sec
- APV increased (average peak blood flow velocity) (anesthetized dog; brain arterial vasculature (BA)): 1.4 ± 0.1 fold
- APV increased (average peak blood flow velocity) (anesthetized dog; forelimb artery (FA)): 1.2 ± 0.1 fold
- APV increased (average peak blood flow velocity) (anesthetized dog; left circumflex coronary artery (LCX)): 3.1 ± 0.2 fold
- APV increased (average peak blood flow velocity) (anesthetized dog; pulmonary artery (PA)): 1.1 ± 0.01 fold
- serious adverse events (healthy volunteers; IV bolus 0.1 to 30 µg/kg): no serious adverse events
- Number of Subjects with AE: Dizziness (healthy volunteers; [3]): 1
- Number of Subjects with AE: Palpitation (healthy volunteers; [3]): 0
- Number of Subjects with AE: Syncope (healthy volunteers; [3]): 1
- Number of Subjects with AE: Dizziness (healthy volunteers; severe in intensity, 30 µg/kg Supine, 4 subjects per group): 0
- half-life [2]: 3 min

— patent EP1708721B1, “MYOCARDIAL PERFUSION IMAGING USING ADENOSINE RECEPTOR AGONISTS” (Gilead Sciences, Inc., priority 2004, dated 2005)
